Experimental data as given in a melting point compilation (Tetko et al.; mined from patent text by program, amines drawn as free bases though some values may be those of a salt).

SMILES	melting point
N#CC(S)(CCC(=O)O)C1=NCCc2ccccc21 (configuration not stated)	149 to 150 °C
Nc1ccc2c(c1)Sc1ccc(N)cc1S2	185 to 186 °C
CCCc1nc2c(N)nc3ccccc3c2n1CCCCNC(=O)c1ccccc1	173 to 174 °C
CCOCC1COc2cc3c(O)c(C#N)cnc3cc2O1 (configuration not stated)	248 to 254 °C
O=C(O)c1ccc(F)cc1NS(=O)(=O)c1ccccc1	158 to 159 °C
O=Cc1cc(Br)ccc1N1CC=CC1	88.2 to 89.2 °C
C=CCN1CCC(O)(c2cc(F)cc(F)c2)C1 (single isomer, unassigned; (-))	102 to 103 °C
O=C(CCc1ccc(CNCc2ccccc2)cc1)Nc1ccc(-c2ccc(Cl)cc2)cc1	176 °C
O=S(=O)(CC(O)Cn1ccnc1)c1ccccc1 (configuration not stated)	153 to 156 °C
CCOC(=O)c1n[nH]c(C(=O)OCC)c1C(O)c1ccc(Cl)cc1[N+](=O)[O-] (configuration not stated)	60 °C
CCN(CC)C(=O)CCC(=O)c1cccc(C)c1N	104 °C
Cc1ncnc2c(NC(=O)c3c(Cl)cccc3Cl)cccc12	223 to 225 °C
OC1(c2ccccc2)CNN=C1c1ccc(Cl)cc1 (configuration not stated)	195 to 196 °C
Cc1cnc(NCCc2ccccn2)c(=O)n1NC(=O)CCc1cc(Cl)ccc1Cl	188 to 191 °C
O=C(O)CCCSc1ncnc2ncn(Cc3ccc4c(c3)Nc3nccnc3S4)c12	120 to 130 °C
CCCCCCCCCCCCCCCCCCOC(=O)C=CC(=O)OCC	42 °C
CN(C)C(=O)Nc1ccc2c(c1)C(CN1CCC(c3ccc(F)cc3)CC1)CC2 (configuration not stated)	141 to 144 °C
O=C(O)CCCCCc1nn(-c2ccc(Cl)cc2)c2c1CCC2	99 to 101 °C
CN(CCc1ccccc1)C1CCN(C(=O)c2ccc(-n3cncn3)nc2)CC1	85 to 86 °C
COc1ccc(S(=O)(=O)Nc2ccc(C)cc2)c2c3ccccc3n(C=O)c12	193 to 199 °C
Cc1c(C(F)(F)F)cnn(-c2cc(OCC3CCC3)c(Cl)cc2F)c1=O	85.3 °C
COc1ccc2c(c1)c(-c1cc3c(-c4c(C)noc4C)ccnc3[nH]1)cn2C	254 to 255 °C
Oc1ccc(-c2nc3cc(O)cc(Br)c3o2)c(C(F)(F)F)c1	183 to 185 °C
COc1ccc(-c2cc(-c3ccc(O)c(F)c3)nc3c(Cl)cc(O)cc23)cc1	140 to 142 °C
Clc1ccccc1N=C1NCCN1	133 to 134 °C
CN1CCCCC1CCc1ccccc1NC(=O)c1ccc(O)cc1 (configuration not stated)	178 to 182 °C

SMILES	melting point
Cc1c(NC(=O)c2cccc(OCc3ccccc3)c2)ccc2cc(CN3CCCC3)cnc12	148 to 149 °C
COc1ccc(Cn2cnc3c(-c4ccco4)nc(C#C[Si](C)(C)C)nc32)cc1	155 to 157 °C
CCCCS(=O)(=O)c1ccc2nn(-c3cc(C(C)(C)CC(C)(C)C)cc(C(C)(C)c4ccccc4)c3O)nc2c1	118 °C
C=CCSc1nc(N)nc2c1ncn2[C@@H]1C[C@H](CO)[C@@H](O)C1	133 to 134 °C
CCOC(=O)CC(NC(=O)c1ccccc1)C(=O)C(C)C (configuration not stated)	44 to 46 °C
CCCc1c(OCC(O)COc2ccc(C(=O)O)cc2Br)ccc(C(C)=O)c1O (configuration not stated)	93 to 95 °C
COC(=O)c1cc(NC(C)=O)ccc1OC(C)=O	133 to 135 °C
COc1ccc(S(=O)(=O)N(CCN2CCC(C(=O)c3ccc(F)cc3)CC2)c2cccc(OC)c2)cc1	129 to 132 °C
Cc1cc(C(F)(C(F)(F)F)C(F)(F)F)ccc1N1C(=O)c2cccc(Cl)c2C1NC(C)(C)CS(C)(=O)=O (configuration not stated)	154 to 156 °C
NC(=O)c1cnc2c(N)cccc2c1	164 to 165 °C
Cc1ccc(S(=O)(=O)N(C)c2ccc(Cl)cc2N=O)cc1	113 to 114 °C
Cc1nc2sc3c(NCCCN4CCCC4=O)ncnc3c2c2c1CCC(C)(C)C2	205 to 206 °C
C#CCOc1cc(O)c2c(c1)OC(C)(C)CC2=O	122 to 124 °C
O=C(O)c1ccc(COCc2csc3nc(C(=O)NCc4cccnc4)[nH]c(=O)c23)cc1	309 to 311 °C
COc1ccc(-c2cc(NC(=O)CCCCN3CCCN(C(C)=O)CC3)n[nH]2)cc1	132 to 133 °C
O=c1[nH]c(=O)n(CCCCBr)c2ccccc12	152 to 153 °C
C[Si](C)(C)CCCNc1ccc(C(=O)O)cc1	164 to 165 °C
Cn1cc(C(N)=O)c(=O)c2sccc21	255 to 258 °C
C=C(C(=O)c1cc(C)cc(C)c1O)c1ccccc1	83 to 84 °C
COc1ccc2c(c1)Sc1cc(C#N)ccc1N2	198 to 199 °C
Cc1c(C(=O)O)ccc(Cl)c1Cl	174 to 175 °C
Cc1n[nH]c2c1nc(-c1ccccc1)c1cc(Br)ccc12	299 to 300 °C
CN(C)CCCCCNC(=O)c1ccc(-c2nnc(CSCCOc3ccccc3)o2)cc1	83 to 89 °C
Cc1cccc(C(=O)NCN2CCN(c3ccccn3)CC2)c1	141 to 143 °C
COC(=O)c1scc(-c2ccccc2)c1-c1ccc(SCOC(C)=O)c(F)c1	103 to 104 °C
CC(=O)NS(=O)(=O)c1cc(C(=O)O)cc(N)c1Oc1ccccc1	290 to 293 °C

SMILES	melting point
CCSC(=O)OCOC(=O)c1ccco1	37.2 to 38.4 °C
CC(C)n1nc(-c2c(OCCF)nc(N)nc2-c2ccccc2)ccc1=O	129 to 130 °C
NC(=S)NCc1ccco1	80 to 91 °C
COC=C(C(=O)OC)c1ccccc1Oc1ccn(-c2ccc(Cl)cc2)n1	109 to 110 °C
CC1(C)OCCC2C(C3(O)CCSC3)C(=O)N21 (configuration not stated)	113 to 115 °C
CCOC(=O)c1cnn2c1nc(OCC)c1cnc3c(cnn3CC)c12	167 to 168 °C
CCCNC(=S)NCCc1cccc2ccc(OC)cc12	95 to 97 °C
Cn1cc(S(N)(=O)=O)c(=O)c2ccccc21	230 to 231 °C
O=C(O)[C@@H]1C[C@@H](O)CN1C(=O)OCc1ccccc1	106 to 107 °C
N#CCCN1CC(=O)N(CCC#N)CC1=O	166 °C
CC(NC(Nc1ccc2c(c1)OCO2)=C(C#N)S(=O)(=O)c1ccc(Cl)cc1)C(C)(C)C (configuration not stated)	160 to 162 °C
CC(C)(C)OC(=O)Nc1ccc(C(=O)N2CCC(c3[nH]nc4c3C(=O)c3c(NC(=O)NN5CCOCC5)cccc3-4)CC2)cc1	212 to 214 °C
CCCOc1ccccc1-c1ncc(C(=O)O)c(=O)[nH]1	203 to 206 °C
CCCCC(=O)OC1(C(=O)CO)CCC2C3CC(C)C4=CC(=O)CCC4(C)C3C(O)CC21C (configuration not stated)	160 °C
CC(=O)CC(=O)NC1CCCC1	52 °C
OCCON=Cc1ccc(-c2ccccc2)cc1	116 to 118 °C
CCCCOC(=O)n1nc(-c2cc(Cl)c(C)c(Cl)c2)ccc1=O	153 to 157 °C
O=C(O)C1CCC2C(=O)OC(=O)C2C1 (configuration not stated)	250 °C
CC1(C)CCC(C)(C)c2cc(-c3cc(-c4ccc(C(=O)O)cc4)ccc3C(=O)O)ccc21	343 °C
O=C(O)c1cncc(-c2ccc(Cl)c(C(=O)NCC34CC5CC(CC(C5)C3)C4)c2)c1	178 to 182 °C
CCOCc1nc2c(N)nc3cc(Br)ccc3c2n1CC1COC(C)(C)O1 (configuration not stated)	176 to 177 °C
CCOC(=O)c1ncn2c1CN=C(c1ccccc1F)c1cc([N+](=O)[O-])ccc1-2	228 to 231 °C
OCc1ccc(OCc2ccc3ccccc3n2)nc1	124 to 125 °C
CCNC(CC)CCOc1ccc(-c2ccc(C(=O)O)cc2)cc1-c1ccc2c(c1)C(C)(C)CCC2(C)C (configuration not stated)	195 °C
COC(=O)C1=C(C)NC(C)=C(C(=O)OCCCCCCCC#N)C1c1cccc([N+](=O)[O-])c1 (configuration not stated)	151 to 152 °C
CCCCC[C@H]1CC[C@H](COc2ccc(C(=O)C(F)(F)F)cc2)CC1	60 °C

SMILES	melting point
O=CC1=CCC(F)(C2COC(c3c(F)cccc3F)=N2)C=C1 (configuration not stated)	105 to 106 °C
COCCNC(=O)c1cnc(C(=O)O)c(OC)c1	160 to 161 °C
COC(=O)c1ccc(Cl)cc1OS(C)(=O)=O	82.5 to 84.5 °C
CCOC(=O)C(C#N)=Cc1c(Cl)n(Cc2ccc(OC)cc2)c2ccccc12	126 to 128 °C
CC(OC(=O)c1ccc(C(=O)O)cc1)c1ccc2c(c1)C(C)(C)CCC2(C)C (single isomer, unassigned; (-))	138 °C
O=C(O)c1ccccc1NCCCN1c2ccccc2CCc2ccccc21	170 to 172 °C
CS(=O)c1cccc(-n2c(=O)n(Cc3ccncc3)c(=O)c3cccnc32)c1 (configuration not stated)	218 to 219 °C
O=C1CCC(C(=O)NCc2cccc3ccccc23)c2ccccc21 (configuration not stated)	155 to 156 °C
O=C(O)C1=NC(c2ccc(Cl)cc2Cl)N(c2ccc(Cl)cc2)C1 (configuration not stated)	150 to 151 °C
Cn1nc(-c2cc(N)c(F)cc2F)c(Cl)c1C(F)(F)F	82 °C
Cc1cccc2sc(=NC(=O)C(F)(F)F)n(N)c12	160 to 161 °C
CC(C)(C)C(=O)OCn1nnc(-c2cc(Br)ccc2NC(=O)c2cccc(S(=O)(=O)N3CCOCC3)c2)n1	210 to 212 °C
CS(=O)(=O)N1CCN(C(=O)Cl)C1=O	178 °C
COc1cc(N)c(Cl)cc1Cn1nc(-c2ccc(Cl)c(Cl)c2)oc1=O	196 to 198 °C
O=C(c1ccncc1)c1cnc2cc(Cl)ccc2c1Cl	132 °C
COc1cc2c(cc1OC)-c1c(OC)c(OC)cc3c1C(C2)N(C)CC3O (single isomer, unassigned; (+))	180 to 182 °C
OCCc1nccn1CCCc1ccc(OCc2ccccc2)cc1	80 to 82 °C
CCOC(=O)c1ncc2[nH]c3c(Br)cc(Br)cc3c2c1COC	98 to 99 °C
Cc1ncc2n1C(=O)N(C1CCN(C(=O)CCS(=O)(=O)c3ccc4cc(Cl)ccc4c3)CC1)C2	195 °C
O=C1c2ccccc2C(=O)N1C[C@@H]1CCC=CO1	87 to 88 °C
CC(=O)CN1CCc2c(c(=O)oc3ccccc23)C1	128 to 130 °C
Cc1oc(-c2ccc(C(F)(F)F)cc2)cc1C(=O)Nc1cccc(CCC(=O)O)c1	200 to 201 °C
Cc1ccc(-c2coc3c(C)c(C)cc(C)c23)nc1	134 to 135 °C
COC(C)=CC(=O)NC1(C)CCCCC1	105 °C
